This is an account of results in paper PMC10010643 (Cancer Chemotherapy and Pharmacology, 2023).

The subject of series [1] is panel of different targets including enzymes, receptors, and ion channels. Also noted: method as in PMID 36154172. To be noted: cited from earlier work.
Series [2] can be described thus: Fraction of unbound GB1211 in plasma. Format: in vitro ADME. As to conditions: human.

Usually fraction unbound stands for free concentration divided by total concentration. As for `OC[C@H]1O[C@H](Sc2cncc(Br)c2)[C@H](O)[C@@H](n2cc(-c3cc(F)c(F)c(F)c3)nn2)[C@H]1O` [GB1211], the “Safety profile against a panel of different targets” value in series [1] is given as “favorable safety profile”. Besides, the fraction unbound in series [2] was 0.0534.
